Assay results published in ChEMBL document CHEMBL1140281, “The discovery of a selective, high affinity A(2B) adenosine receptor antagonist for the potential treatment of asthma” (Bioorg Med Chem Lett, 2005).

Columns and labels:
Adenosine receptor A2a [1] = target: T1, Adenosine receptor A2a (Homo sapiens, UniProt P29274); test: biochemical
Description: Binding affinity for adenosine A2a receptor by using as [3H]ZM-241385 (2 nM) radioligand in membranes from HEK-A2A cells

Adenosine receptor A2b [2] = target: T2, Adenosine receptor A2b (Homo sapiens, UniProt P29275)
T2 sequence (P29275 whole entry): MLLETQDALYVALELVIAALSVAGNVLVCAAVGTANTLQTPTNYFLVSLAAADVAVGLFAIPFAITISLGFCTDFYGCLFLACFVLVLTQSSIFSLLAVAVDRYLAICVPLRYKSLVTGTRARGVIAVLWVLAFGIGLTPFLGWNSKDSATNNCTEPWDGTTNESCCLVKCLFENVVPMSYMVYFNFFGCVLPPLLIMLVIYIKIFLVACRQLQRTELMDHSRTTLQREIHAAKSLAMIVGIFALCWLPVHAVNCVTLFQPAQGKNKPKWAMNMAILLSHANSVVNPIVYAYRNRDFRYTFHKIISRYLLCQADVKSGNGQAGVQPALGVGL

Adenosine receptor A1 = target: T3, Adenosine receptor A1 (Homo sapiens, UniProt P30542); test: biochemical
T3 sequence (P30542 whole entry): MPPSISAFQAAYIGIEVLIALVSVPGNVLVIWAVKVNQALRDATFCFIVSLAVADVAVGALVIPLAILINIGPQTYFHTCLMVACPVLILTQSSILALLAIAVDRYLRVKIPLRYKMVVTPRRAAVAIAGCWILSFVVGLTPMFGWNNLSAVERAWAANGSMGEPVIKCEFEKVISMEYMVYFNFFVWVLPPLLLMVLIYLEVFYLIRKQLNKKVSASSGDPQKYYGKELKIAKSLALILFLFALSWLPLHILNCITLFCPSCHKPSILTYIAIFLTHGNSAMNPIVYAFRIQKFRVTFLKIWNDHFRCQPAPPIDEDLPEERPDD

Adenosine receptor A2b [3] = target: T2, Adenosine receptor A2b; test: Binding affinity for adenosine A2b receptor by using as [3H]ZM-241385 radioligand in membranes from HEK-A2B cells
Adenosine receptor A2a [4] = target: T1, Adenosine receptor A2a; test: biochemical; remark: listed apart in the source
Description: Binding affinity against Adenosine A2a receptor labeled by [3H]ZM-241385 in membranes prepared from HEK-A2A cells

Adenosine receptor A2b [5] = target: T2, Adenosine receptor A2b; test: Binding affinity against Adenosine A2b receptor labeled by [3H]ZM-241385 in membranes prepared from HEK-A2B cells

T1 sequence (P29274 whole entry): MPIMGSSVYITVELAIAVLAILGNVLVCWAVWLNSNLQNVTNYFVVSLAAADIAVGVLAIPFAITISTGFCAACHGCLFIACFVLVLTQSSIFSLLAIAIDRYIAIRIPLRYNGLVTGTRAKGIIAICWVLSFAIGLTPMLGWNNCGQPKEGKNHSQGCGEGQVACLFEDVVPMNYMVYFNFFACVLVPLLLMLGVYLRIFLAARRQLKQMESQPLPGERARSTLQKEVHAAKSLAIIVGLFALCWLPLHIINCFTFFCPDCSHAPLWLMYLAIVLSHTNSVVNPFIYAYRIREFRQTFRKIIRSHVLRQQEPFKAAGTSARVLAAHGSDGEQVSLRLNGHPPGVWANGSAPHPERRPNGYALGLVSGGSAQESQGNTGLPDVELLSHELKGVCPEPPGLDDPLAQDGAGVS

For `CCCn1c(=O)c2[nH]c(-c3ccc(OCc4nc(-c5ccc(F)cc5)no4)cc3)nc2n(CCC)c1=O`, the Ki (Adenosine receptor A2a [1]) was > 5 µM, the Ki (Adenosine receptor A2b [2]) was 0.215 µM and the Ki (Adenosine receptor A1) was 1.83 µM. The Ki (Adenosine receptor A2b [3]) was 0.215 µM.
`CCCn1c(=O)c2nc(-c3ccc(OCc4noc(-c5ccc(C(F)(F)F)cc5)n4)cc3)[nH]c2n(CCC)c1=O` gave a Ki (Adenosine receptor A2a [1]) of 4.91 µM, a Ki (Adenosine receptor A2b [2]) of 0.255 µM and a Ki (Adenosine receptor A1) of 5.18 µM.
For `CCCn1c(=O)c2nc(-c3ccc(OCc4nc(-c5ccccc5Cl)no4)cc3)[nH]c2n(CCC)c1=O`, the Ki (Adenosine receptor A2a [1]) was > 5 µM, the Ki (Adenosine receptor A2b [2]) was 1.83 µM and the Ki (Adenosine receptor A1) was > 6 µM.
With `CCCn1c(=O)c2[nH]c(-c3ccc(OCc4noc(-c5ccccc5Cl)n4)cc3)nc2n(CCC)c1=O` the Ki (Adenosine receptor A2b [2]) was 5.83 µM.
Work on `CCCn1c(=O)c2nc(-c3ccc(OCc4noc(-c5ccc(C)cc5)n4)cc3)[nH]c2n(CCC)c1=O` yielded a Ki (Adenosine receptor A2a [1]) of 1.01 µM, a Ki (Adenosine receptor A2b [2]) of 0.091 µM and a Ki (Adenosine receptor A1) of 0.113 µM.
In the case of `CCCn1c(=O)c2nc(-c3ccc(OCc4nc(-c5ccc(C)cc5)no4)cc3)[nH]c2n(CCC)c1=O`, the Ki (Adenosine receptor A2a [1]) is reported as > 5 µM, the Ki (Adenosine receptor A2b [2]) is reported as 0.526 µM and the Ki (Adenosine receptor A1) is reported as 0.643 µM.
For `CCCn1c(=O)c2nc(-c3ccc(OCc4noc(-c5cccc(Cl)c5)n4)cc3)[nH]c2n(CCC)c1=O`, the Ki (Adenosine receptor A2a [1]) was > 5 µM, the Ki (Adenosine receptor A2b [2]) was 2.08 µM and the Ki (Adenosine receptor A1) was > 6 µM.
For `CCCn1c(=O)c2nc(-c3ccc(OCc4nc(-c5ccccc5F)no4)cc3)[nH]c2n(CCC)c1=O`, the Ki (Adenosine receptor A2a [1]) was > 5 µM, the Ki (Adenosine receptor A2b [2]) was > 2 µM and the Ki (Adenosine receptor A1) was > 6 µM.
For `CCCn1c(=O)c2[nH]c(-c3ccc(OCc4nc(-c5ccc(Cl)cc5)no4)cc3)nc2n(CCC)c1=O`, the Ki (Adenosine receptor A2b [2]) was 5.17 µM.
In the case of `CCCn1c(=O)c2[nH]c(-c3ccc(OCc4nc(-c5ccccc5OC)no4)cc3)nc2n(CCC)c1=O`, the Ki (Adenosine receptor A2a [1]) is reported as > 5 µM, the Ki (Adenosine receptor A2b [2]) is reported as 0.557 µM and the Ki (Adenosine receptor A1) is reported as > 6 µM.
Work on `CCCn1c(=O)c2nc(-c3ccc(OCc4noc(-c5ccc(Cl)cc5)n4)cc3)[nH]c2n(CCC)c1=O` yielded a Ki (Adenosine receptor A2b [2]) of 3.66 µM.
In the case of `CCCn1c(=O)c2[nH]c(-c3ccc(OCc4nc(-c5cccc(C(F)(F)F)c5)no4)cc3)nc2n(CCC)c1=O`, the Ki (Adenosine receptor A2a [1]) is reported as > 5 µM, the Ki (Adenosine receptor A2b [2]) is reported as 0.945 µM and the Ki (Adenosine receptor A1) is reported as > 6 µM.
Molecule `CCCn1c(=O)c2nc(-c3ccc(OCc4noc(-c5ccccc5F)n4)cc3)[nH]c2n(CCC)c1=O` has a Ki (Adenosine receptor A2b [2]) of 0.645 µM.
In the case of `CCCn1c(=O)c2nc(-c3ccc(OCc4nc(-c5ccccc5C)no4)cc3)[nH]c2n(CCC)c1=O`, the Ki (Adenosine receptor A2a [1]) is reported as > 5 µM, the Ki (Adenosine receptor A2b [2]) is reported as 1.12 µM and the Ki (Adenosine receptor A1) is reported as > 6 µM.
`CCCn1c(=O)c2nc(-c3ccc(OCc4nc(-c5cccc(F)c5)no4)cc3)[nH]c2n(CCC)c1=O` was tested, and the Ki (Adenosine receptor A2a [1]) was > 5 µM, the Ki (Adenosine receptor A2b [2]) was 1.45 µM and the Ki (Adenosine receptor A1) was 2.01 µM.
For `CCCn1c(=O)c2nc(-c3ccc(OCc4nc(-c5cccc(C)c5)no4)cc3)[nH]c2n(CCC)c1=O`, the Ki (Adenosine receptor A2a [1]) was > 5 µM, the Ki (Adenosine receptor A2b [2]) was > 6.67 µM and the Ki (Adenosine receptor A1) was > 6 µM.
For `CCCn1c(=O)c2nc(-c3ccc(OCc4noc(-c5ccccc5C)n4)cc3)[nH]c2n(CCC)c1=O`, the Ki (Adenosine receptor A2a [1]) was > 15 µM, the Ki (Adenosine receptor A2b [2]) was 0.438 µM and the Ki (Adenosine receptor A1) was > 10 µM.
In the case of `CCCn1c(=O)c2[nH]c(-c3ccc(OCc4noc(-c5ccc(C#N)cc5)n4)cc3)nc2n(CCC)c1=O`, the Ki (Adenosine receptor A2a [1]) is reported as > 5 µM, the Ki (Adenosine receptor A2b [2]) is reported as 0.207 µM and the Ki (Adenosine receptor A1) is reported as 0.288 µM.
For `CCCn1c(=O)c2nc(-c3ccc(OCc4nc(-c5ccc(OC)cc5)no4)cc3)[nH]c2n(CCC)c1=O`, the Ki (Adenosine receptor A2a [1]) was > 5 µM, the Ki (Adenosine receptor A2b [2]) was 2.78 µM and the Ki (Adenosine receptor A1) was > 6 µM.
In the case of `CCCn1c(=O)c2nc(-c3ccc(OCc4nc(-c5ccccc5C(F)(F)F)no4)cc3)[nH]c2n(CCC)c1=O`, the Ki (Adenosine receptor A2a [1]) is reported as 3.14 µM, the Ki (Adenosine receptor A2b [2]) is reported as 0.325 µM and the Ki (Adenosine receptor A1) is reported as 0.473 µM.
Molecule `CCCn1c(=O)c2[nH]c(-c3ccc(OCc4noc(-c5ccc(OC)cc5)n4)cc3)nc2n(CCC)c1=O` has a Ki (Adenosine receptor A2b [2]) of 0.25 µM and a Ki (Adenosine receptor A1) of 2.19 µM.
`CCCn1c(=O)c2nc(-c3ccc(OCc4nc(-c5cccc(OC)c5)no4)cc3)[nH]c2n(CCC)c1=O` was tested, and the Ki (Adenosine receptor A2a [1]) was > 5 µM, the Ki (Adenosine receptor A2b [2]) was 1.68 µM and the Ki (Adenosine receptor A1) was > 6 µM.
For `CCCn1c(=O)c2[nH]c(-c3ccc(OCc4nc(-c5ccc(C(F)(F)F)cc5)no4)cc3)nc2n(CCC)c1=O`, the Ki (Adenosine receptor A2a [1]) was > 5 µM, the Ki (Adenosine receptor A2b [2]) was 0.485 µM and the Ki (Adenosine receptor A1) was 1.17 µM.
With `CCCn1c(=O)c2nc(-c3ccc(OCc4noc(-c5cccc(C(F)(F)F)c5)n4)cc3)[nH]c2n(CCC)c1=O` the Ki (Adenosine receptor A2a [1]) was > 5 µM, the Ki (Adenosine receptor A2b [2]) was 1.01 µM and the Ki (Adenosine receptor A1) was > 6 µM.
Work on `CCCn1c(=O)c2[nH]c(-c3ccc(OCc4noc(-c5ccccc5OC)n4)cc3)nc2n(CCC)c1=O` yielded a Ki (Adenosine receptor A2a [1]) of 2.94 µM, a Ki (Adenosine receptor A2b [2]) of 0.127 µM and a Ki (Adenosine receptor A2a [4]) of 0.023 µM. It also gave a Ki (Adenosine receptor A1) of 1.16 µM and a Ki (Adenosine receptor A2b [5]) of 0.127 µM.
`CCCn1c(=O)c2[nH]c(-c3ccc(OCc4noc(-c5ccc(F)cc5)n4)cc3)nc2n(CCC)c1=O` was tested, and the Ki (Adenosine receptor A2a [1]) was > 5 µM, the Ki (Adenosine receptor A2b [2]) was 0.22 µM and the Ki (Adenosine receptor A1) was > 6 µM.
For `CCCn1c(=O)c2[nH]c(-c3ccc(OCc4noc(-c5cccc(F)c5)n4)cc3)nc2n(CCC)c1=O`, the Ki (Adenosine receptor A2a [1]) was > 5 µM, the Ki (Adenosine receptor A2b [2]) was > 2 µM and the Ki (Adenosine receptor A1) was > 6 µM.
In the case of `CCCn1c(=O)c2[nH]c(-c3ccc(OCc4noc(-c5cccc(C)c5)n4)cc3)nc2n(CCC)c1=O`, the Ki (Adenosine receptor A2b [2]) is reported as 0.7 µM.
With `CCCn1c(=O)c2nc(-c3ccc(OCc4nc(-c5cccc(Cl)c5)no4)cc3)[nH]c2n(CCC)c1=O` the Ki (Adenosine receptor A2a [1]) was 0.407 µM, the Ki (Adenosine receptor A2b [2]) was 0.042 µM and the Ki (Adenosine receptor A1) was 0.0064 µM.
In the case of `CCCn1c(=O)c2nc(-c3ccc(OCc4nc(-c5ccc(C#N)cc5)no4)cc3)[nH]c2n(CCC)c1=O`, the Ki (Adenosine receptor A2a [1]) is reported as > 5 µM, the Ki (Adenosine receptor A2b [2]) is reported as 4.52 µM and the Ki (Adenosine receptor A1) is reported as > 6 µM.
